Measurements taken from EP1101492A1, “NOVEL REMEDIES FOR ALLERGIC DISEASES” (FUJI YAKUHIN KOGYO KABUSHIKI KAISHA, priority 1998, dated 2000).

How the values were obtained:
[1] = tested on: mouse experimental atopic dermatitis models; experiment: Auricle edema in experimental atopic dermatitis model (anti-DNP IgE sensitization, DNFB elicitation); assay type: in vivo, Balb/c mice; settings: test compounds 60 mg/kg s.c., prednisolone 10 mg/kg i.p.; for % Inhibition IPR: auricle edema 1 hour post-elicitation; for % Inhibition IPR / % Inhibition LPR: once a day, 24 & 2 hours prior to DNFB-elicitation, vs untreated group; for % Inhibition LPR: auricle edema Day 1 post-elicitation; for % Inhibition vLPR: auricle edema Day 7 post-elicitation
Procedure: Intravenous injection of an anti-2,4-dinitrophenol (DNP) antibody (anti-DNP Ab, monoclonal IgE Ab; its antibody titer was 1 : 512 to 1 : 1024 by a rat heterologous passive cutaneous anaphylaxis reaction using a Wister rat) into a tail vein of female Balb/c mice (7-week old, body weight: 17 to 20 g, purchased from JAPAN SLC, Inc.) at a dose of […] per animal raised passive sensitization. Twenty four hours post-sensitization, 0.1% 2,4-dinitrofluorobenzene (DNFB; Nacalai Tesque, Inc.) in ethanol was painted onto both sides of a pair of mouse auricles at a dose of 10µL per each side for elicitation.
Fresh unsensitized mice were painted with 0.1% DNFB in ethanol onto their ear in the same manner as aforementioned and served as a control group. Not only immediately prior to elicitation but also 1 hour, 5 hours, daily between Days 1 and 14, and on Day 16 post-elicitation, ear thickness was measured using a dial thickness gauge (Peacock Co.). Each degree of auricle edemas was calculated: Auricular Edema (µm)=(Ear Thickness Post-Elicitation, µm) - (Ear Thickness immediately prior to Elicitation, µm) [formula]
Balb/c mice were passively sensitized with anti-DNP IgE Ab in the same manner as in Example 1. Twenty four hours later, 0.1% DNFB in ethanol was painted onto both sides of a pair of mouse auricles at a dose of 10 µL per each side for elicitation.
Immediately prior to elicitation, 1 hour and on Day 1 post-elicitation, auricle thickness was measured in the same manner as in Example 1. Each therapeutic efficacy is recorded as a percent inhibition wherein the "auricle edema (untreated group)" is used as a control. Auricle Edema Inhibition (%) = [ 1 -(Auricle Edema (Treated Group))/(Auricle Edema (Untreated Group))] × 100 (%) [formula]
Immediately prior to elicitation, and on Day 7 post-elicitation, auricle thickness was similarly measured. Each therapeutic efficacy is recorded as a percent inhibition wherein the auricle edema in the untreated group is used as a control.
Immediately prior to elicitation, and on Day 7 post-elicitation, auricle thickness was similarly measured. Each therapeutic efficacy is recorded as a percent inhibition wherein the auricle edema (untreated group) is used as a control.
Immediately prior to elicitation, at 1 and 4 hours and on Days 1, 3 and 7 post-elicitation, auricle thickness was similarly measured. From each auricle edema (µm) based on the auricle thickness immediately prior to elicitation, especially a prophylactically therapeutic efficacy of the test compound was evaluated.
Immediately prior to elicitation, at 0.5, 1 and 4 hours and on Days 1, 3 and 7 post-elicitation, auricle thickness was similarly measured. Each amount of auricle edemas was calculated (average± standard deviation).

Body weight gain in mice = settings: test compounds 60 mg/kg s.c., prednisolone 10 mg/kg i.p., once a day for 6 days (Days 0-5), average ± standard deviation; for Body Weight Gain, Observation Day 5: non-administered 0.50± 0.23; for Body Weight Gain, Observation Day 7: non-administered 0.80± 0.48; for Body Weight Gain, Observation Day 10: non-administered 1.07± 0.58
Procedure: Accordingly, for assessing the side-effect each of the following test compounds an action on body weight gains was examined.
Next the mice were measured for their body weight. Each body weight gain was calculated on Days 5, 7 and 10 post-administration based on the body weight just prior to administration.

[2] = tested on: guinea pig experimental bronchial asthma models; experiment: Experimental bronchial asthma model (ovalbumin inhalation): airway resistance and asthmatic death;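 for all read-outs here: female Std:Hartley guinea pigs sensitized by inhaling nebulized ovalbumin once daily for 8 consecutive days, 8 to 11 animals per group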; settings: test compounds 15 mg/kg s.c. (Compound No. 114: 30 mg/kg), prednisolone 10 mg/kg orally; for % Survival: asthmatic death within several minutes after elicitation, water for injection 54.5, 0.5% methyl cellulose 66.7; for % Amelioration in Airway Resistance, 1 Hour after Elicitation / % Amelioration in Airway Resistance, 6 Hours after Elicitation / % Amelioration in Airway Resistance, Immediately after Elicitation: 24 and 2 hours prior to elicitation, vs solvent control
Procedure: Guinea pigs (female, Std:Hartley, 3 weeks old, 200 to 250 g) were individually housed in a plastic chamber (width, 200 mm; depth, 300 mm; height, 167 mm). Aqueous ovalbumin (10 mg/mL) was administered to the guinea pigs once a day for sensitization by 10 min. inhalation with a nebulizer (5B, Nippon Shoji K.K.: flow rate, 6 L/min.) at a dose of 10 mg/mL during 8 cosecutive days. On Day 7 after the final sensitization, the guinea pigs were housed in a plastic chamber and inhaled using a nebulizer with a solution of ovalbumin (10 mg/mL) in physiological saline for 1 min. for elicitation (Matsumoto, T., et al., The Journal of Pharmacology and Experimental Therapeutics, 269: 1236-1244, 1994). The number of animals employed in the experiment was set to the extent there are at least 6 as individuals escaping asthmatic death. A solution of a test compound (Compound No. 130, 15 mg/kg) in water for injection was administered subcutaneously twice, i.e., 24 hours and 2 hours prior to elicitation. Similarly, the solvent alone was also administered to a negative control group. A suspension of prednisolone (10 mg/kg) in 0.5% aqueous methyl cellulose was administered orally twice, i.e., 24 hours and 2 hours prior to elicitation. Similarly, the solvent alone was also administered to another control group.
The evaluation for efficacies was conducted in terms of airway resistance. For this purpose, an apparatus dedicated to the measurement of airway resistance (K.K. Medical Agent) was employed. Measurement includes setting a guinea pig in a test chamber under a not-anesthetized condition, applying sinusoidal pressure waves of 30 Hz components to a part below the neck of the animal from the back side of the chamber, measuring respiratory waves of 30 Hz components leaking through the mouth (volume of 30 Hz air flow passing through the respiratory tract) in front of the neck, and calculating airway resistance mechanically. Measurement was carried out immediately prior to the first drug treatment (24 hours before elicitation), just prior to elicitation, 10 minutes, 1, 2, 4, 6, and 8 hours post-elicitation.
It was visually observed by a person carrying out said test in terms, of the appearance of cyanosis or suffocative death (asthmatic death) due to respiratory obstruction.
Guinea pigs were sensitized with ovalbumin and asthma was induced on Day 7 after final sensitization in the same manner as in Example 20. The number of animals employed in the experiment was set to the extent there are at least 6 as individuals escaping asthmatic death (8 to 11 animals/group). In the same manner as in Example 20, the animals were measured for airway resistance mechanically and each percent change (%) in airway resistance was calculated (each value just prior to elicitation was set as 100%). Each percent amelioration in airway resistance was calculated from the percent changes in airway resistance according to the following formula: Amelioration in Airway Resistance (%) = 1 -[((Percent Change in Airway Resistance after Drug-Administration) - (Value just prior to Challenge (100)))/((Percent Change in Airway Resistance after Solvent-Administration) - (Value just prior to Challenge (100)))]× 100 [formula]

[3] = daily from 3 to 6 days after DNFB-elicitation
[4] = daily from 1 day prior to through 5 days after DNFB-elicitation

SMILES | % Inhibition IPR [1] | % Inhibition LPR [1] | % Inhibition vLPR [1, 3] | Body Weight Gain, Observation Day 5 (Body weight gain in mice) | Body Weight Gain, Observation Day 7 (Body weight gain in mice) | Body Weight Gain, Observation Day 10 (Body weight gain in mice) | % Inhibition vLPR [1, 4] | % Survival [2] | % Amelioration in Airway Resistance, 1 Hour after Elicitation [2] | % Amelioration in Airway Resistance, 6 Hours after Elicitation [2] | % Amelioration in Airway Resistance, Immediately after Elicitation [2]
CNC(=O)C(CCCCNC(C)=N)NC(=O)C(CC(C)C)C(C)C(=O)NO (racemic) [Compound No. 22, N^a-[4-(Hydroxyamino)-2(R)-isobutyl-3(RS)-methylsuccinyl]-N^e-acetimidoyl-L-lysine N-methylamide · 1 acetate] | 52.7% | 33.1% | 49.5% | 0.97± 0.31 | 0.80± 0.39 | 1.20± 0.53 | – | – | – | – | –
CNC(=O)C(CCCN)NC(=O)C(CC(C)C)C(CCCc1ccc(NC(=N)N)cc1)C(=O)NO (racemic) [Compound No. 46, N^a-[4-(Hydroxyamino)-2(R)-isobutyl-3(RS)-[3-(4'-guanidinophenyl)propyl]succinyl]-L-ornithine-N-methylamide · 2 acetate] | – | 46.7% | – | 1.08± 0.22 | 1.57± 0.33 | 1.33± 0.32 | 27.5% | – | – | – | –
CC(=N)NCc1ccc(CC(NC(=O)C(CC(C)C)C(CC(C)C)C(=O)NO)C(=O)NCCO)cc1 (racemic) [Compound No. 91, N^a-[4-(Hydroxyamino)-2(R),3(RS)-diisobutylsuccinyl]-4'-acetimidoyliminomethyl-L-phenylalanine N-(2-hydroxyethyl)amide · 2 acetate] | – | 43.0% | – | 1.28± 0.37 | 1.55± 0.48 | 1.30± 0.54 | – | – | – | – | –
CNC(=O)C(CCCNC(=N)N)NC(=O)C(CC(C)C)C(Cc1ccc(CN2C(=O)c3ccccc3C2=O)cc1)C(=O)NO (single isomer, unassigned) [Compound No. 51, N^a-[4-(Hydroxyamino)-2(R)-isobutyl-3(R or S)-(p-phthalimidomethylbenzyl)succinyl]-L-arginine N-methylamide · 1 acetate] | – | – | – | – | – | – | – | 70.0% | 59.1% | 56.3% | 30.1%
CNC(=O)[C@H](CCCCN)NC(=O)[C@H](CC(C)C)C(CCCc1ccc(C(=O)OC)cc1)C(=O)NO (single isomer, unassigned) [Compound No. 65, N^a-[4-(Hydroxyamino)-2(R)-isobutyl-3(R or S)-[3-(p-methoxycarbonylphenyl)propyl]succinyl]-L-lysine N-methylamide · 1 acetate] | – | – | – | – | – | – | – | 87.5% | 22.3% | 63.6% | 29.9%
CC(=N)N=Cc1ccc(C[C@H](NC(=O)[C@H](CC(C)C)C(CC(C)C)C(=O)NO)C(=O)NCCN(C)C)cc1.CC(=O)O.CC(=O)O (single isomer, unassigned) [Compound No. 90, N^a-[4-(Hydroxyamino)-2(R),3(R or S)-diisobutylsuccinyl]-4'-acetimidoyliminomethyl-L-phenylalanine N-(2-N',N'-dimethylaminoethyl)amide · 2 acetate] | – | – | – | – | – | – | 20.6% | – | – | – | –
CC(=O)O.CNC(=O)[C@H](Cc1ccc(CNC(C)=N)cc1)NC(=O)[C@H](CC(C)C)[C@H](O)C(=O)NO [Compound No. 43, N^a-[4-(Hydroxyamino)-2(R)-isobutyl-3(S)-hydroxysuccinyl]-4'-acetimidoyliminomethyl-L-phenylalanine N-methylamide · 1 acetate] | 38.2% | 39.2% | 43.6% | – | – | – | – | – | – | – | –
CC(=O)O.CNC(=O)[C@H](Cc1ccc(NC(=N)N)cc1)NC(=O)[C@@H](CC(=O)NO)CC(C)C [Compound No. 121, N-[4-(N-Hydroxyamino)-2(R)-isobutylsuccinyl]-L-4'-guanidophenylalanine-N-methylamide 1 acetate] | – | – | – | – | – | – | – | 88.9% | 56.4% | 102.2% | –
CC(=O)O.CNC(=O)[C@H](Cc1ccc(CNC(C)=N)cc1)NC(=O)[C@H](CC(C)C)[C@H](CCCc1ccccc1)C(=O)NO [Compound No. 126, N-[4-(N-Hydroxyamino)-2(R)-isobutyl-3(S)-(3-phenyltrimethylene)succinyl]-L-4'-acetimidoyliminomethylenephenyl alanine-N-methylamide · 1 acetate] | 38.2% | 39.2% | 44.7% | – | – | – | – | – | – | – | –
CC(=O)O.CC(C)C[C@H](C(=O)NO)[C@@H](CC(C)C)C(=O)N[C@@H](Cc1ccc(CN)cc1)C(=O)NCCC(=O)O [Compound No. 127, N-[4-(N-Hydroxyamino)-2(R),3(S)-diisobutylsuccinyl]-L-4'-aminomethylphenylalaninyl-β-alanine · 1 acetate] | 47.8% | 41.1% | 20.6% | – | – | – | 46.7% | 70.0% | 20.8% | 55.2% | 21.9%
CNC(=O)[C@H](Cc1ccc(CN)cc1)NC(=O)[C@H](CC(C)C)[C@@H](CCCc1ccccc1)C(=O)NO.Cl [Compound No. 128, N-[4-(N-Hydroxyamino)-2(R)-isobutyl-3(R)-(3-phenylpropyl)succinyl)-L-4'-aminomethylphenylalanine-N-methylamide · 1 hydrochloride] | – | – | – | – | – | – | – | 72.7% | 53.2% | 49.4% | –
